Structures are written as SMILES.

The term EC50 denotes the concentration giving half of the maximal effect.

The first experiment relates to M17_3SYN cells. The experiment can be described thus: Paraquat-induced cytotoxicity (LDH) in α-synuclein over-expressing M17_3SYN neuroblastoma cells. The format is cell-based, human. Particulars: Homo sapiens, Neuroblastoma cell, 48 h, toxicity inhibition (LDH) in M17_3SYN cells challenged with 6 mM paraquat, 2 days; read-out: SYN EC50. The text has this: A α-synuclein expression plasmid was constructed by subcloning the NcoI/XhoI fragment from 212T-SYN(WT) (Griffioen et al., Biochem Biophys Acta (2006) 1762(3):312-318) containing the cDNA of human wild type α-synuclein correspondingly into a standard mammalian expression vector pcDNA3.1 resulting in plasmid pcDNA3.1-SYNwt. Plasmids pcDNA3.1 and pcDNA3.1-SYNwt were transfected into human neuroblastoma cells (BE-M17; ATCC No. CRL-2267™) using lipofectamine reagent and subsequently, independent clonal cell lines with the plasmids stably integrated into the genome were selected by antibiotic resistance selection (Geneticin (G418)), resulting in cell lines M17.pcDNA3 and M17_3SYN. Overexpression of α-synuclein in the M17_3SYN cell line was confirmed by Western blot analysis.
Due to the high levels of α-synuclein, M17_3SYN cells were sensitive to paraquat, a well-known risk factor Parkinson's disease and of synuclein-dependent neuronal degeneration. Cytotoxicity of cells was measured by quantification of lactate dehydrogenase (LDH) levels. In dead cells, LDH leaked out of the cells into the medium due to a loss of plasma-membrane integrity.
[…], primary pre-cultures of M17.pcDNA3 (as possible control) and M17_3SYN cells were prepared, starting from a stock culture, at a density of 20.000-40.000 cells/cm2 in culture medium (Opti-MEM® Reduced Serum Medium with Phenol Red (Invitrogen, Cat. 31985-047) supplemented with 10% FCS, 1 mM sodium pyruvate, 1×NEAA, 500 μg/ml G418 and 0.5×antibiotic/antimycotic (ABAM)). 3 days later these primary pre-cultures were used as a starting point to make secondary pre-cultures at a density of 50.000-100.000 cells/cm^2. At the day of the experiment these secondary precultures were diluted to ˜0.5·10^6 cells/ml in detection medium (Opti-MEM® Reduced-Serum Medium without Phenol Red (Invitrogen, Cat. 11085-021) supplemented with 10% FCS, 1 mM sodium pyruvate, 1×NEAA, 500 μg/ml G418 and 0.5×ABAM) and 60 μL of this suspension was dispensed per well into a 96-well microtiter plate. After 3 hours of incubation at 37° C./5% CO2 an equal volume of detection medium containing a final concentration of 6 mM Paraquat was added and subsequently incubated for 2 days at 37° C./5% CO2. Then LDH activity was determined using the Promega Cytotox 96 Non-Radioactive cytotoxicity assay (Promega, Cat. G1780), according to the manufacturer's instructions. Cytotoxicity was defined as the ratio of LDH relative to the total LDH in the cells and supernatant.
The assay described above using the M17_3SYN cell line allowed screening compounds for their ability to decrease cytotoxicity in PQ-challenged cells. Compounds of the invention were tested for their ability to decrease toxicity at different concentrations, ranging from low non-effective concentrations to high effective concentrations. Afterwards, a dose-dependent inhibition curve was used to calculate the EC50. A compound was considered to be active in this test when it inhibited toxicity by more than 20% relative to untreated M17_3SYN cells at a concentration of 10 μM or lower.
Regarding `CC[C@@H](c1ccccc1)c1noc(N2CCN(S(=O)(=O)c3ccc(OC)cc3)CC2)n1` [Cmpd050, 1-(4-Methoxy-benzenesulfonyl)-4-[3-((S)-1-phenyl-propyl)-[1,2,4]oxadiazol-5-yl]-piperazine], the EC50 is 68 nM.

`COc1ccc(S(=O)(=O)N2CCN(c3nc(COc4cccnc4)no3)CC2)cc1` [Cmpd204, 5-(4-((4-Methoxyphenyl)sulfonyl)piperazin-1-yl)-3-((pyridin-3-yloxy)methyl)-1,2,4-oxadiazole]: the EC50 turned out to be 65 nM.

Turning to `CC(C)Oc1ccc(S(=O)(=O)N2CCN(c3nc(Cc4cccc(F)c4)no3)CC2)cc1` [Cmpd093, 1-[3-(3-Fluoro-benzyl)-[1,2,4]oxadiazol-5-yl]-4-(4-isopropoxy-benzenesulfonyl)-piperazine], the concentration giving a half-maximal response (EC50) was found to be 326 nM.

In the case of `CSc1ccc(S(=O)(=O)N2CCN(c3nc(C(C)(C)c4cccc(Cl)c4)no3)CC2)cc1` [Cmpd155, 1-{3-[1-(3-Chloro-phenyl)-1-methyl-ethyl]-[1,2,4]oxadiazol-5-yl}-4-(4-methylsulfanyl-benzenesulfonyl)-piperazine], the EC50 came out at 2 nM.

Consider `COc1ccc(S(=O)(=O)N2CCN(c3nc(CC(F)(F)F)no3)CC2)cc1` [Cmpd165, 5-(4-((4-Methoxyphenyl)sulfonyl)piperazin-1-yl)-3-(2,2,2-trifluoroethyl)-1,2,4-oxadiazole], for which the EC50 came to 32 nM.

On to `CCOc1ccc(S(=O)(=O)N2CCN(c3nc(Cc4ccc(Cl)cc4)no3)CC2)cc1` [Cmpd053, 1-[3-(4-Chloro-benzyl)-[1,2,4]oxadiazol-5-yl]-4-(4-ethoxy-benzenesulfonyl)-piperazine], for which the concentration giving a half-maximal response (EC50) is 31 nM.

`CC(=O)Nc1ccc(S(=O)(=O)N2CCN(c3nc(Cc4cccc(F)c4)no3)CC2)cc1` [Cmpd086, N-(4-{4-[3-(3-Fluoro-benzyl)-[1,2,4]oxadiazol-5-yl]-piperazine-1-sulfonyl}-phenyl)-acetamide]: the EC50 was found to be 522 nM.

As for `CCCCc1noc(N2CCN(S(=O)(=O)c3ccc(OC)cc3)CC2)n1` [Cmpd208, 3-Butyl-5-(4-((4-methoxyphenyl)sulfonyl)piperazin-1-yl)-1,2,4-oxadiazole], the EC50 turned out to be 98 nM.

For `COc1ccc(S(=O)(=O)N2CCN(c3nc(Cc4ccnc(C)c4)no3)CC2)cc1` [Cmpd169, 1-(4-Methoxy-benzenesulfonyl)-4-[3-(2-methyl-pyridin-4-ylmethyl)-[1,2,4]oxadiazol-5-yl]-piperazine], the EC50 stood at 34 nM.

For `CCOc1ccc(S(=O)(=O)N2CCN(c3nc(CC4CC4)no3)CC2)cc1` [Cmpd162, 3-(Cyclopropylmethyl)-5-(4-((4-ethoxyphenyl)sulfonyl)piperazin-1-yl)-1,2,4-oxadiazole], the concentration giving a half-maximal response (EC50) came to 224 nM.

For the compound `O=S(=O)(c1ccc(OC(F)F)cc1)N1CCN(c2nc(Cc3ccc(Cl)cc3)no2)CC1` [Cmpd054, 1-[3-(4-Chloro-benzyl)-[1,2,4]oxadiazol-5-yl]-4-(4-difluoromethoxy-benzenesulfonyl)-piperazine], the EC50 worked out at 19 nM.

`COc1ccc(S(=O)(=O)N2CCN(c3nc(Cc4cccc(F)c4)no3)CC2)cc1` [Cmpd084, 1-[3-(3-Fluoro-benzyl)-[1,2,4]oxadiazol-5-yl]-4-(4-methoxy-benzenesulfonyl)-piperazine]: the EC50 was determined as 5 nM.

Regarding `CCOc1ccc(S(=O)(=O)N2CCN(c3nc(C(F)(F)c4ccc(F)cc4)no3)CC2)cc1` [Cmpd147, 1-{3-[Difluoro-(4-fluoro-phenyl)-methyl]-[1,2,4]oxadiazol-5-yl}-4-(4-ethoxy-benzenesulfonyl)-piperazine], the 50% effective concentration (EC50) was 22 nM.

On to `CC(C)(c1cccc(Cl)c1)c1noc(N2CCN(S(=O)(=O)c3ccc(OC(F)F)cc3)CC2)n1` [Cmpd154, 1-{3-[1-(3-Chloro-phenyl)-1-methyl-ethyl]-[1,2,4]oxadiazol-5-yl}-4-(4-difluoromethoxy-benzenesulfonyl)-piperazine], for which the 50% effective concentration (EC50) is 7 nM.

Consider `O=S(=O)(c1ccc(OC(F)F)cc1)N1CCN(c2nc(Cc3ccccc3)no2)CC1` [Cmpd039, 1-(3-Benzyl-[1,2,4]oxadiazol-5-yl)-4-(4-difluoromethoxy-benzenesulfonyl)-piperazine], for which the half-maximal effective concentration (EC50) came out at 11 nM.

Turning to `CSc1ccc(S(=O)(=O)N2CCN(c3nc(CC(F)(F)F)no3)CC2)cc1` [Cmpd168, 5-(4-((4-(Methylthio)phenyl)sulfonyl)piperazin-1-yl)-3-(2,2,2-trifluoroethyl)-1,2,4-oxadiazole], the EC50 was 198 nM.

In the case of `O=S(=O)(c1ccc(F)cc1)N1CCN(c2nc(Cc3cccc(F)c3)no2)CC1` [Cmpd085, 1-(4-Fluoro-benzenesulfonyl)-4-[3-(3-fluoro-benzyl)-[1,2,4]oxadiazol-5-yl]-piperazine], the EC50 was found to be 250 nM.

In the case of `O=S(=O)(c1ccc(OC(F)F)cc1)N1CCN(c2nc(C3C[C@@H]4CC[C@H]3C4)no2)CC1` (stereo partly drawn) [Cmpd192, 3-((1 S,4R)-bicyclo[2.2.1]heptan-2-yl)-5-(4-((4-(difluoromethoxy)phenyl)sulfonyl)piperazin-1-yl)-1,2,4-oxadiazole], the EC50 was 164 nM.

With `CCOc1ccc(S(=O)(=O)N2CCN(c3nc(C(CC)c4ccccc4)no3)CC2)cc1` (centres unmarked) [Cmpd045, 1-(4-Ethoxy-benzenesulfonyl)-4-[3-(1-phenyl-propyl)-[1,2,4]oxadiazol-5-yl]-piperazine], the EC50 turned out to be 18 nM.

For the compound `COc1ccc(S(=O)(=O)N2CCN(c3nc(C4CCCCC4)no3)CC2)cc1` [Cmpd210, 3-Cyclohexyl-5-(4-((4-methoxyphenyl)sulfonyl)piperazin-1-yl)-1,2,4-oxadiazole], the EC50 was determined as 327 nM.

For the compound `CC(C)(c1ccccc1)c1noc(N2CCN(S(=O)(=O)c3ccc(OC(F)F)cc3)CC2)n1` [Cmpd196, 1-(4-Difluoromethoxy-benzenesulfonyl)-4-[3-(1-methyl-1-phenyl-ethyl)-[1,2,4]oxadiazol-5-yl]-piperazine], the EC50 came out at 8 nM.

Consider `CC(C)(c1ccc(F)cc1)c1noc(N2CCN(S(=O)(=O)c3ccc(OC(F)F)cc3)CC2)n1` [Cmpd114, 1-(4-Difluoromethoxy-benzenesulfonyl)-4-{3-[1-(4-fluoro-phenyl)-1-methyl-ethyl]-[1,2,4]oxadiazol-5-yl}-piperazine], for which the concentration for a half-maximal effect (EC50) was 17 nM.

As for `CCOc1ccc(S(=O)(=O)N2CCN(c3nc(Cc4ccc(F)c(F)c4)no3)CC2)cc1` [Cmpd100, 1-[3-(3,4-Difluoro-benzyl)-[1,2,4]oxadiazol-5-yl]-4-(4-ethoxy-benzenesulfonyl)-piperazine], the EC50 was determined as 130 nM.

In the case of `COc1ccc(S(=O)(=O)N2CCN(c3nc(C(F)(F)c4ccccc4)no3)CC2)cc1` [Cmpd156, 1-[3-(Difluoro-phenyl-methyl)-[1,2,4]oxadiazol-5-yl]-4-(4-methoxy-benzenesulfonyl)-piperazine], the EC50 was 5 nM.

As for `O=S(=O)(c1ccc(OC(F)F)cc1)N1CCN(c2nc(C(F)(F)c3ccccc3)no2)CC1` [Cmpd158, 1-(4-Difluoromethoxy-benzenesulfonyl)-4-[3-(difluoro-phenyl-methyl)-[1,2,4]oxadiazol-5-yl]-piperazine], the EC50 was 31 nM.

The experiment is the same for the next values; noted with them: toxicity inhibition (LDH) in M17_3SYN cells challenged with 6 mM paraquat, 2 days; read-out: SYN EC50.
For `CC(C)Oc1ccc(S(=O)(=O)N2CCN(c3nc(Cc4cccc(F)c4)no3)CC2)cc1` [Cmpd096, 3-(3-Fluorobenzyl)-5-(4-((4-isopropoxyphenyl)sulfonyl)piperazin-1-yl)-1,2,4-oxadiazole], the concentration giving a half-maximal response (EC50) was determined as 289 nM.

Source of the values: US10562869B2, “Oxadiazole compounds” (REMYND NV, priority 2014, dated 2020).
